Test results reported in the supplement of paper PMC10307832.

Legend:
Assay in all cases: relative viability (nuclei count vs DMSO), 5 days (fraction); higher = more cells survive
EMC-BAC-2 = test system: EMC-BAC-2
In short: (§1)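 Relative viability is defined as nuclei in treated wells over nuclei in vehicle wells. Duplicate plates were run and medians reported. Lung cancer cell lines in 1536-well plates were dosed by pin tool one day after seeding, with one drug or with a fixed anchor-drug dose plus five library-drug doses (not always all listed) in √10 steps, and nuclei were counted after 5 days.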

EPLC-272H = test system: EPLC-272H
In short: as §1

HCC-44 = test system: HCC-44
In short: as §1

HOP-62 = test system: HOP-62
In short: as §1

LCLC-103H = test system: LCLC-103H
In short: as §1

LOU-NH91 = test system: LOU-NH91
In short: as §1

NCI-H1437 = test system: NCI-H1437
In short: as §1

NCI-H1793 = test system: NCI-H1793
In short: as §1

NCI-H2009 = test system: NCI-H2009
In short: as §1

NCI-H2023 = test system: NCI-H2023
In short: as §1

NCI-H2126 = test system: NCI-H2126
In short: as §1

NCI-H2347 = test system: NCI-H2347
In short: as §1

NCI-H23 = test system: NCI-H23
In short: as §1

NCI-H2405 = test system: NCI-H2405
In short: as §1

NCI-H441 = test system: NCI-H441
In short: as §1

NCI-H460 = test system: NCI-H460
In short: as §1

NCI-H520 = test system: NCI-H520
In short: as §1

NCI-H647 = test system: NCI-H647
In short: as §1

NCI-H650 = test system: NCI-H650
In short: as §1

NCI-H727 = test system: NCI-H727
In short: as §1

SW 1573 = test system: SW 1573
In short: as §1

With `O=C(O)CCCCC(CCSCc1ccccc1)SCc1ccccc1` (centres undefined) [CPI-613] + C[C@]1(O)C[C@@H](c2nc(-c3ccc4ccc(-c5ccccc5)nc4c3)c3c(N)nccn32)C1 [Linsitinib] (partner 1 µM) the relative viability (EMC-BAC-2; first compound 5 µM) was 0.733, the relative viability (EMC-BAC-2; first compound 15.81 µM) was 0.823 and the relative viability (EMC-BAC-2; first compound 50 µM) was 0.825. For the same compound, the relative viability (EMC-BAC-2; first compound 158.11 µM) was 0.701, the relative viability (EMC-BAC-2; first compound 500 µM) was 0.272 and the relative viability (EPLC-272H; first compound 5 µM) was 1.21. For the same compound, the relative viability (EPLC-272H; first compound 15.81 µM) was 1.15, the relative viability (EPLC-272H; first compound 50 µM) was 1.05 and the relative viability (EPLC-272H; first compound 158.11 µM) was 0.759. The relative viability (EPLC-272H; first compound 500 µM) was 0.698, the relative viability (HCC-44; first compound 5 µM) was 0.625 and the relative viability (HCC-44; first compound 15.81 µM) was 0.666. For the same compound, the relative viability (HCC-44; first compound 50 µM) was 0.717, the relative viability (HCC-44; first compound 158.11 µM) was 0.393 and the relative viability (HCC-44; first compound 500 µM) was 0.0377. For the same compound, the relative viability (HOP-62; first compound 5 µM) was 1.05, the relative viability (HOP-62; first compound 15.81 µM) was 1.05 and the relative viability (HOP-62; first compound 50 µM) was 0.863. For the same compound, the relative viability (HOP-62; first compound 158.11 µM) was 0.611, the relative viability (HOP-62; first compound 500 µM) was 0.0257 and the relative viability (LCLC-103H; first compound 5 µM) was 1.11. It also gave a relative viability (LCLC-103H; first compound 15.81 µM) of 1.01, a relative viability (LCLC-103H; first compound 50 µM) of 1.08 and a relative viability (LCLC-103H; first compound 158.11 µM) of 1. For the same compound, the relative viability (LCLC-103H; first compound 500 µM) was 0.866, the relative viability (LOU-NH91; first compound 5 µM) was 0.918 and the relative viability (LOU-NH91; first compound 15.81 µM) was 0.907. It also gave a relative viability (LOU-NH91; first compound 50 µM) of 1.06, a relative viability (LOU-NH91; first compound 158.11 µM) of 0.971 and a relative viability (LOU-NH91; first compound 500 µM) of 0.959. It also gave a relative viability (NCI-H1437; first compound 5 µM) of 1.03, a relative viability (NCI-H1437; first compound 15.81 µM) of 0.902 and a relative viability (NCI-H1437; first compound 50 µM) of 0.916. The relative viability (NCI-H1437; first compound 158.11 µM) was 0.137, the relative viability (NCI-H1437; first compound 500 µM) was 0.0235 and the relative viability (NCI-H1793; first compound 5 µM) was 0.822. The relative viability (NCI-H1793; first compound 50 µM) was 0.823, the relative viability (NCI-H1793; first compound 158.11 µM) was 0.774 and the relative viability (NCI-H1793; first compound 500 µM) was 0.102. For the same compound, the relative viability (NCI-H2009; first compound 5 µM) was 1.17, the relative viability (NCI-H2009; first compound 15.81 µM) was 1.18 and the relative viability (NCI-H2009; first compound 50 µM) was 1.18. The relative viability (NCI-H2009; first compound 158.11 µM) was 0.559, the relative viability (NCI-H2009; first compound 500 µM) was 0.019 and the relative viability (NCI-H2023; first compound 5 µM) was 0.614. It also gave a relative viability (NCI-H2023; first compound 15.81 µM) of 0.698, a relative viability (NCI-H2023; first compound 50 µM) of 0.668 and a relative viability (NCI-H2023; first compound 158.11 µM) of 0.243. It also gave a relative viability (NCI-H2023; first compound 500 µM) of 0.0069, a relative viability (NCI-H2126; first compound 5 µM) of 0.721 and a relative viability (NCI-H2126; first compound 15.81 µM) of 0.751. For the same compound, the relative viability (NCI-H2126; first compound 50 µM) was 0.712, the relative viability (NCI-H2126; first compound 158.11 µM) was 0.534 and the relative viability (NCI-H2126; first compound 500 µM) was 0.567. The relative viability (NCI-H2347; first compound 5 µM) was 0.983, the relative viability (NCI-H2347; first compound 15.81 µM) was 0.857 and the relative viability (NCI-H2347; first compound 50 µM) was 0.86. It also gave a relative viability (NCI-H2347; first compound 158.11 µM) of 0.874, a relative viability (NCI-H2347; first compound 500 µM) of 0.868 and a relative viability (NCI-H23; first compound 5 µM) of 0.596. The relative viability (NCI-H23; first compound 15.81 µM) was 0.567, the relative viability (NCI-H23; first compound 50 µM) was 0.395 and the relative viability (NCI-H23; first compound 158.11 µM) was 0.383. It also gave a relative viability (NCI-H23; first compound 500 µM) of 0.0224, a relative viability (NCI-H2405; first compound 5 µM) of 0.979 and a relative viability (NCI-H2405; first compound 15.81 µM) of 0.897. For the same compound, the relative viability (NCI-H2405; first compound 50 µM) was 0.895, the relative viability (NCI-H2405; first compound 158.11 µM) was 0.818 and the relative viability (NCI-H2405; first compound 500 µM) was 0.773. For the same compound, the relative viability (NCI-H441; first compound 5 µM) was 0.521, the relative viability (NCI-H441; first compound 15.81 µM) was 0.59 and the relative viability (NCI-H441; first compound 50 µM) was 0.605. For the same compound, the relative viability (NCI-H441; first compound 158.11 µM) was 0.255, the relative viability (NCI-H441; first compound 500 µM) was 0.132 and the relative viability (NCI-H460; first compound 5 µM) was 0.751. For the same compound, the relative viability (NCI-H460; first compound 15.81 µM) was 0.737, the relative viability (NCI-H460; first compound 50 µM) was 0.78 and the relative viability (NCI-H460; first compound 158.11 µM) was 0.125. It also gave a relative viability (NCI-H460; first compound 500 µM) of 0.0075, a relative viability (NCI-H520; first compound 5 µM) of 0.842 and a relative viability (NCI-H520; first compound 15.81 µM) of 1.09. It also gave a relative viability (NCI-H520; first compound 50 µM) of 1.03, a relative viability (NCI-H520; first compound 158.11 µM) of 0.412 and a relative viability (NCI-H520; first compound 500 µM) of 0.12. For the same compound, the relative viability (NCI-H647; first compound 5 µM) was 1.16, the relative viability (NCI-H647; first compound 15.81 µM) was 1.13 and the relative viability (NCI-H647; first compound 50 µM) was 0.951. The relative viability (NCI-H647; first compound 158.11 µM) was 0.107, the relative viability (NCI-H647; first compound 500 µM) was 0.0169 and the relative viability (NCI-H650; first compound 5 µM) was 0.905. For the same compound, the relative viability (NCI-H650; first compound 15.81 µM) was 0.807, the relative viability (NCI-H650; first compound 50 µM) was 0.975 and the relative viability (NCI-H650; first compound 158.11 µM) was 0.746. The relative viability (NCI-H650; first compound 500 µM) was 0.747, the relative viability (NCI-H727; first compound 5 µM) was 0.251 and the relative viability (NCI-H727; first compound 15.81 µM) was 0.343. The relative viability (NCI-H727; first compound 50 µM) was 0.2, the relative viability (NCI-H727; first compound 158.11 µM) was 0.216 and the relative viability (NCI-H727; first compound 500 µM) was 0.0496. It also gave a relative viability (SW 1573; first compound 5 µM) of 0.878, a relative viability (SW 1573; first compound 15.81 µM) of 0.751 and a relative viability (SW 1573; first compound 50 µM) of 0.816. It also gave a relative viability (SW 1573; first compound 158.11 µM) of 0.625 and a relative viability (SW 1573; first compound 500 µM) of 0.576.
